The text below walks through data of ChEMBL document CHEMBL3124838, “Discovery of 6-aryl-azabenzimidazoles that inhibit the TBK1/IKK-ε kinases” (Bioorg Med Chem Lett, 2014).

The target in the first experiment is Focal adhesion kinase 1 (Homo sapiens) (UniProt Q05397). The experiment in a line: Inhibition of human FAK assessed as residual activity at 1 uM relative to control.
Chain of Focal adhesion kinase 1 (Homo sapiens) (Q05397 2-1052 limits assumed): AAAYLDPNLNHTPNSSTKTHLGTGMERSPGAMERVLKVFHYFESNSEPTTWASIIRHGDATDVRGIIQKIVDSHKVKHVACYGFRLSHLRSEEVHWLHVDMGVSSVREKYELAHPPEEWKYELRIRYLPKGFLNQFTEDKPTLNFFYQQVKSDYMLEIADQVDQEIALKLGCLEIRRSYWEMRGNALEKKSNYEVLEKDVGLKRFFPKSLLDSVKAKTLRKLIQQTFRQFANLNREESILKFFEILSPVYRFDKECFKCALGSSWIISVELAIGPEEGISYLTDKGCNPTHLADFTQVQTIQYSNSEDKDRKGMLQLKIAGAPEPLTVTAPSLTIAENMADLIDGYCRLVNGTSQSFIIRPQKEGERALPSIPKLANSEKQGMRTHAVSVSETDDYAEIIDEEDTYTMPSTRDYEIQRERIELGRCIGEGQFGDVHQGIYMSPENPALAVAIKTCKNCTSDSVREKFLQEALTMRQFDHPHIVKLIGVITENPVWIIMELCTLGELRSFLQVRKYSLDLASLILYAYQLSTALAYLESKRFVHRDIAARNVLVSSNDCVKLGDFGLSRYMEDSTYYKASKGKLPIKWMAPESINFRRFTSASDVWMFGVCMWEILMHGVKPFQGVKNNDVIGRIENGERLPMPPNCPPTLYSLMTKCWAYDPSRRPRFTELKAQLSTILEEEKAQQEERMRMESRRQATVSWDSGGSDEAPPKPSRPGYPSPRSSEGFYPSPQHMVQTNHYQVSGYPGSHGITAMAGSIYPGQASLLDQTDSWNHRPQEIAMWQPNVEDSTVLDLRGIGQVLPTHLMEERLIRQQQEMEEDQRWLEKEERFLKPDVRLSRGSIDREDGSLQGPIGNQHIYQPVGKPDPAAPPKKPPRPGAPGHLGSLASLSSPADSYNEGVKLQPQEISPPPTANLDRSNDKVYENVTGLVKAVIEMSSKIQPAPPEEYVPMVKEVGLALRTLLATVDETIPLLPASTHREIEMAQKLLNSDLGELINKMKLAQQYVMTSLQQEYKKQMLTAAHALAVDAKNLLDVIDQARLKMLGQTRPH
In the case of `COc1ccc(-c2nc3cc(-c4csc(C(=O)NCCC(C)C)c4)cnc3[nH]2)cc1`, the Activity is 90%.

For the compound `COc1ccc(-c2nc3cc(-c4csc(C(=O)NCC(C)(C)C)c4)cnc3[nH]2)cc1`, the Activity is 80%.

Turning to `COc1ccc(-c2nc3cc(-c4csc(C(=O)NCC(C)C)c4)cnc3[nH]2)cc1`, the Activity amounted to 91%.

The target in a further experiment is T1, Eukaryotic elongation factor 2 kinase (Homo sapiens) (UniProt O00418).
T1 sequence (whole entry): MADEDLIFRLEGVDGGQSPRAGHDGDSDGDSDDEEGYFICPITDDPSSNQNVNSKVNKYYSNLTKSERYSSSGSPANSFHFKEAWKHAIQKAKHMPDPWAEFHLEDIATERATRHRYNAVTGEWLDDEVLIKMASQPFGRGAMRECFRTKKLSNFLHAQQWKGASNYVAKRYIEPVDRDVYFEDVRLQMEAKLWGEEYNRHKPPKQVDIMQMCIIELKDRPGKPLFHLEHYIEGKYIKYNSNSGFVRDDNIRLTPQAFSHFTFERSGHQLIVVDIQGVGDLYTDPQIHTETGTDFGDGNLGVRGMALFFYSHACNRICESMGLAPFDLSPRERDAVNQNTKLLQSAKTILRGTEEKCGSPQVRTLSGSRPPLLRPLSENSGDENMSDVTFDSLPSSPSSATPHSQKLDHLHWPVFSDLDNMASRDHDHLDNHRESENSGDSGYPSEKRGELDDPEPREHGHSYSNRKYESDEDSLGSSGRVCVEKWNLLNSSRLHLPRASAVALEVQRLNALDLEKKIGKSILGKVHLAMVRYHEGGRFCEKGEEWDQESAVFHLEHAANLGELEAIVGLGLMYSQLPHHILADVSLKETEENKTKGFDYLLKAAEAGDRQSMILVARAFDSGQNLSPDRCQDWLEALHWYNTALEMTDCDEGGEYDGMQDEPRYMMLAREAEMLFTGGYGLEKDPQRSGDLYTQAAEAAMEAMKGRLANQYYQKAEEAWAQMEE
The experiment in a line: Inhibition of human eEF-2K assessed as residual activity at 1 uM relative to control.
Regarding `COc1ccc(-c2nc3cc(-c4csc(C(=O)NCCC(C)C)c4)cnc3[nH]2)cc1`, the Activity came to 101%.

For the compound `COc1ccc(-c2nc3cc(-c4csc(C(=O)NCC(C)(C)C)c4)cnc3[nH]2)cc1`, the Activity was found to be 91%.

Regarding `COc1ccc(-c2nc3cc(-c4csc(C(=O)NCC(C)C)c4)cnc3[nH]2)cc1`, the Activity was found to be 102%.

Another experiment deals with CDK9/cyclin T1 (Homo sapiens) (UniProt O60563+P50750). The experiment in a line: Inhibition of human CDK9/cyclin T1 assessed as residual activity at 1 uM relative to control. Type of experiment: protein-complex assay.
`COc1ccc(-c2nc3cc(-c4csc(C(=O)NCCC(C)C)c4)cnc3[nH]2)cc1`: the Activity stood at 95%.

On to `COc1ccc(-c2nc3cc(-c4csc(C(=O)NCC(C)(C)C)c4)cnc3[nH]2)cc1`, for which the Activity is 103%.

As for `COc1ccc(-c2nc3cc(-c4csc(C(=O)NCC(C)C)c4)cnc3[nH]2)cc1`, the Activity was 100%.

Another experiment deals with Macrophage-stimulating protein receptor (Homo sapiens) (UniProt Q04912). The experiment in a line: Inhibition of human RON assessed as residual activity at 1 uM relative to control.
Chain of Macrophage-stimulating protein receptor (Homo sapiens) (Q04912 25-304 limits assumed): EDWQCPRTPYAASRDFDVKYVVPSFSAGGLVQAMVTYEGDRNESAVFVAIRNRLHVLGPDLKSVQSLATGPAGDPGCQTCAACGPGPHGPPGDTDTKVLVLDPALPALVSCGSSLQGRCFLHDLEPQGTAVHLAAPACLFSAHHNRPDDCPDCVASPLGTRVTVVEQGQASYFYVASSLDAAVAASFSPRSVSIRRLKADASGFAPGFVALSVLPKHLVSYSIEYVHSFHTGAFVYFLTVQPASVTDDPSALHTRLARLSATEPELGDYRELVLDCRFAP
Chain of Macrophage-stimulating protein receptor (Homo sapiens) (Q04912 310-1400 limits assumed): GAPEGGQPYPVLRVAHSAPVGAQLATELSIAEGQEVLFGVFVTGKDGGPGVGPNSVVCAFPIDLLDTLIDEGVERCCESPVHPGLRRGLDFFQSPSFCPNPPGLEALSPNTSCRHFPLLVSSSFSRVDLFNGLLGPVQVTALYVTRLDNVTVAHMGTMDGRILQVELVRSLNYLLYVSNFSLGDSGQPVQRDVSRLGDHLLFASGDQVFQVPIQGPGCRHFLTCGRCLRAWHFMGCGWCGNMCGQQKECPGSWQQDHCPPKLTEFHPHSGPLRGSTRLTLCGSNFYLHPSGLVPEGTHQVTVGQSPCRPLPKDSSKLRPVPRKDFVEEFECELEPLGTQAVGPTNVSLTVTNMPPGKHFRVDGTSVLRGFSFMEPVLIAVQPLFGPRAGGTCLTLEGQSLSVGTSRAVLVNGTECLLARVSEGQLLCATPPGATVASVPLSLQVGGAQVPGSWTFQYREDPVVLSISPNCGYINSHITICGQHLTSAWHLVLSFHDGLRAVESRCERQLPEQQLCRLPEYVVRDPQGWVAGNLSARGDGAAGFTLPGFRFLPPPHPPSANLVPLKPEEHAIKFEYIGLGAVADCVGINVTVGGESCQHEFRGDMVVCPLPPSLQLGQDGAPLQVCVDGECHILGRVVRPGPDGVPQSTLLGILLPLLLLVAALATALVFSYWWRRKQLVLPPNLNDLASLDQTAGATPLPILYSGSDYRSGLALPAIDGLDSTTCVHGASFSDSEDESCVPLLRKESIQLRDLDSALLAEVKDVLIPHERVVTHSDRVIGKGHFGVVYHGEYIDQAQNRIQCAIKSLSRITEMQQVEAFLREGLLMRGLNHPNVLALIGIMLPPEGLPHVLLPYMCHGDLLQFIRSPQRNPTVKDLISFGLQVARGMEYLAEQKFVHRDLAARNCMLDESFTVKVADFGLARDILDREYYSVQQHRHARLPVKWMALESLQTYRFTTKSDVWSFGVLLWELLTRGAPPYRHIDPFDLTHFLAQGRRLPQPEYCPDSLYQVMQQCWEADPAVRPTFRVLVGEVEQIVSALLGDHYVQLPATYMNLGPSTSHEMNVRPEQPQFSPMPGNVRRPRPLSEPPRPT
In the case of `COc1ccc(-c2nc3cc(-c4csc(C(=O)NCCC(C)C)c4)cnc3[nH]2)cc1`, the Activity is 132%.

In the case of `COc1ccc(-c2nc3cc(-c4csc(C(=O)NCC(C)(C)C)c4)cnc3[nH]2)cc1`, the Activity was determined as 122%.

Regarding `COc1ccc(-c2nc3cc(-c4csc(C(=O)NCC(C)C)c4)cnc3[nH]2)cc1`, the Activity was found to be 128%.

The target of a further experiment is T2, Serine/threonine-protein kinase 4 (Homo sapiens) (UniProt Q13043).
T2 sequence (whole entry): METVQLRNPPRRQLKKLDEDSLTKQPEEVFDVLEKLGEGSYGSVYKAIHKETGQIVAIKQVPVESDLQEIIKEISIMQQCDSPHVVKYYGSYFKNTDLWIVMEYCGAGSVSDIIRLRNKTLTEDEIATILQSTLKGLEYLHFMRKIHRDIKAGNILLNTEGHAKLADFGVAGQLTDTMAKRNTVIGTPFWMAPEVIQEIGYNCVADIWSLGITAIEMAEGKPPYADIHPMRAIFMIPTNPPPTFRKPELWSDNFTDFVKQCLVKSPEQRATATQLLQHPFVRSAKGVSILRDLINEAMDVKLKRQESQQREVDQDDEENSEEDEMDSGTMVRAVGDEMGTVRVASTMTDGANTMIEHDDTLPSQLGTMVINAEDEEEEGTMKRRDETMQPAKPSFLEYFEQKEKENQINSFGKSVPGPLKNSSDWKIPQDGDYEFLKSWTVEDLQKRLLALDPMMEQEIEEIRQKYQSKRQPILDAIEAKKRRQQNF
The experiment in a line: Inhibition of human MST1 assessed as residual activity at 1 uM relative to control.
Consider `COc1ccc(-c2nc3cc(-c4csc(C(=O)NCCC(C)C)c4)cnc3[nH]2)cc1`, for which the Activity was determined as 116%.

For `COc1ccc(-c2nc3cc(-c4csc(C(=O)NCC(C)(C)C)c4)cnc3[nH]2)cc1`, the Activity amounted to 122%.

In the case of `COc1ccc(-c2nc3cc(-c4csc(C(=O)NCC(C)C)c4)cnc3[nH]2)cc1`, the Activity was found to be 115%.

For the next experiment, the target named is PI3K p110 beta/p85 alpha (Homo sapiens) (UniProt P27986+P42338). The experiment in a line: Inhibition of human PI3K p110beta/p85alpha assessed as residual activity at 1 uM relative to control. Type of experiment: protein-complex assay.
Chain of PI3K p110 beta/p85 alpha (Homo sapiens) (P27986 2-724 limits assumed): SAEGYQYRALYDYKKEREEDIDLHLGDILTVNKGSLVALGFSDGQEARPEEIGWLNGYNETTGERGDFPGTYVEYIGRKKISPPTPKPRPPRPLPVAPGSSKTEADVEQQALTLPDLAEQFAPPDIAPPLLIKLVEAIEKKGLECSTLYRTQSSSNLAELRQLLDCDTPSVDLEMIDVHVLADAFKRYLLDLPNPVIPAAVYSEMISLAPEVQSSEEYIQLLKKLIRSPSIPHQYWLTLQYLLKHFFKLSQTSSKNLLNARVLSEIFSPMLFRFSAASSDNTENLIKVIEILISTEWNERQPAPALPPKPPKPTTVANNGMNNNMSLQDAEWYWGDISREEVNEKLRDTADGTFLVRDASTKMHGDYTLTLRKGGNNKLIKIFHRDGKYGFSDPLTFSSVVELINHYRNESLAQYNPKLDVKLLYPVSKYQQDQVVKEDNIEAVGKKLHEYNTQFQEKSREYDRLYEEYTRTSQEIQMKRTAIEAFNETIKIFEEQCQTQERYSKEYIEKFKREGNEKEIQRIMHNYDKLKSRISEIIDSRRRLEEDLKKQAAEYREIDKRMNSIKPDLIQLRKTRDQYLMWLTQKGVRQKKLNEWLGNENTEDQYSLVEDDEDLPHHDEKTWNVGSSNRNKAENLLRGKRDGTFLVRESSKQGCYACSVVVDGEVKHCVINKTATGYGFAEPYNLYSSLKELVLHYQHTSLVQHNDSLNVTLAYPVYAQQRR
Chain of PI3K p110 beta/p85 alpha (Homo sapiens) (P42338 whole entry partner): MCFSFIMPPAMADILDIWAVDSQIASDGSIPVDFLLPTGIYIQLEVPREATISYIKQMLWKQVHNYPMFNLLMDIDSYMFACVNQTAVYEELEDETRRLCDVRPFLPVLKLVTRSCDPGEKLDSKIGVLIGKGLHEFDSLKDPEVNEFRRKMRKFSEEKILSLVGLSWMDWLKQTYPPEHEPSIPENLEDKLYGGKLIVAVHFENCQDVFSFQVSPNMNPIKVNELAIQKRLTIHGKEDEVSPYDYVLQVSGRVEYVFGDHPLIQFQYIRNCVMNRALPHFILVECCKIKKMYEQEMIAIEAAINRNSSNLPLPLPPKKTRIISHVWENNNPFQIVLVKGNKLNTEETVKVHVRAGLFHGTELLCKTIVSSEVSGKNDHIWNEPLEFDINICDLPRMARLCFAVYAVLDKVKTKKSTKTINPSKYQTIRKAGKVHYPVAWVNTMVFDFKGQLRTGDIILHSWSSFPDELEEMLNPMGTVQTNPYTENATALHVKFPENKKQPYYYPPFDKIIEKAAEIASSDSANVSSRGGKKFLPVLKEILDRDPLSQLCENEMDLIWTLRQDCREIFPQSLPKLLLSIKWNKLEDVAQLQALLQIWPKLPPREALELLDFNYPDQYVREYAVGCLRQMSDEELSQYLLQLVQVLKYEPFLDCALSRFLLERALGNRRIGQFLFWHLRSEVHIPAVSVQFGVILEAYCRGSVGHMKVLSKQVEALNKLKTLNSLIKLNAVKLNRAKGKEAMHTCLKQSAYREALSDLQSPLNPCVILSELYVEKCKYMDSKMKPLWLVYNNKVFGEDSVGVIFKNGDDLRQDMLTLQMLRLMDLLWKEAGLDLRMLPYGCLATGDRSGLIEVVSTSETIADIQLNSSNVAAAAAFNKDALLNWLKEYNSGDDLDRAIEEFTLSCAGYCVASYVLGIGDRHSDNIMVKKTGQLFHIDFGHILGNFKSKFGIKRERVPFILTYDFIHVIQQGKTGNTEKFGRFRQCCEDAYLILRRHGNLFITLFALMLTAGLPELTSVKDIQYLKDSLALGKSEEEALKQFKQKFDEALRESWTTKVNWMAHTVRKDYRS
Consider `COc1ccc(-c2nc3cc(-c4csc(C(=O)NCCC(C)C)c4)cnc3[nH]2)cc1`, for which the Activity stood at 92%.

Regarding `COc1ccc(-c2nc3cc(-c4csc(C(=O)NCC(C)(C)C)c4)cnc3[nH]2)cc1`, the Activity worked out at 89%.

In the case of `COc1ccc(-c2nc3cc(-c4csc(C(=O)NCC(C)C)c4)cnc3[nH]2)cc1`, the Activity stood at 89%.

For the next experiment, the target named is T3, MAP kinase-activated protein kinase 5 (Homo sapiens) (UniProt Q8IW41).
T3 sequence (whole entry): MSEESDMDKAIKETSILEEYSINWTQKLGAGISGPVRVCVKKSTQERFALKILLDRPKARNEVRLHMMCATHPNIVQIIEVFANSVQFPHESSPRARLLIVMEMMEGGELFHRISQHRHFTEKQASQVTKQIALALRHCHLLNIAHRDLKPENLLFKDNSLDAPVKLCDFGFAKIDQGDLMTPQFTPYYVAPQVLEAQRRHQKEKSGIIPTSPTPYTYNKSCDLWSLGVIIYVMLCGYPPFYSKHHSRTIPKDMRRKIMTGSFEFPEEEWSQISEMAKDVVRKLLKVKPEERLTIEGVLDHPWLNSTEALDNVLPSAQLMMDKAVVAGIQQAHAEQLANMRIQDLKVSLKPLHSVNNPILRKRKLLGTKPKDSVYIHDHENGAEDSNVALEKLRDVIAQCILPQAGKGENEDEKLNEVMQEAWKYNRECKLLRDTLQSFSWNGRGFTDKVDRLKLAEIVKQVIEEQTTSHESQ
The experiment in a line: Inhibition of human PRAK assessed as residual activity at 1 uM relative to control.
On to `COc1ccc(-c2nc3cc(-c4csc(C(=O)NCCC(C)C)c4)cnc3[nH]2)cc1`, for which the Activity turned out to be 102%.

Turning to `COc1ccc(-c2nc3cc(-c4csc(C(=O)NCC(C)(C)C)c4)cnc3[nH]2)cc1`, the Activity came to 115%.

As for `COc1ccc(-c2nc3cc(-c4csc(C(=O)NCC(C)C)c4)cnc3[nH]2)cc1`, the Activity came out at 112%.

For a further experiment, the target named is T4, Ephrin type-B receptor 1 (Homo sapiens) (UniProt P54762).
T4 sequence (whole entry): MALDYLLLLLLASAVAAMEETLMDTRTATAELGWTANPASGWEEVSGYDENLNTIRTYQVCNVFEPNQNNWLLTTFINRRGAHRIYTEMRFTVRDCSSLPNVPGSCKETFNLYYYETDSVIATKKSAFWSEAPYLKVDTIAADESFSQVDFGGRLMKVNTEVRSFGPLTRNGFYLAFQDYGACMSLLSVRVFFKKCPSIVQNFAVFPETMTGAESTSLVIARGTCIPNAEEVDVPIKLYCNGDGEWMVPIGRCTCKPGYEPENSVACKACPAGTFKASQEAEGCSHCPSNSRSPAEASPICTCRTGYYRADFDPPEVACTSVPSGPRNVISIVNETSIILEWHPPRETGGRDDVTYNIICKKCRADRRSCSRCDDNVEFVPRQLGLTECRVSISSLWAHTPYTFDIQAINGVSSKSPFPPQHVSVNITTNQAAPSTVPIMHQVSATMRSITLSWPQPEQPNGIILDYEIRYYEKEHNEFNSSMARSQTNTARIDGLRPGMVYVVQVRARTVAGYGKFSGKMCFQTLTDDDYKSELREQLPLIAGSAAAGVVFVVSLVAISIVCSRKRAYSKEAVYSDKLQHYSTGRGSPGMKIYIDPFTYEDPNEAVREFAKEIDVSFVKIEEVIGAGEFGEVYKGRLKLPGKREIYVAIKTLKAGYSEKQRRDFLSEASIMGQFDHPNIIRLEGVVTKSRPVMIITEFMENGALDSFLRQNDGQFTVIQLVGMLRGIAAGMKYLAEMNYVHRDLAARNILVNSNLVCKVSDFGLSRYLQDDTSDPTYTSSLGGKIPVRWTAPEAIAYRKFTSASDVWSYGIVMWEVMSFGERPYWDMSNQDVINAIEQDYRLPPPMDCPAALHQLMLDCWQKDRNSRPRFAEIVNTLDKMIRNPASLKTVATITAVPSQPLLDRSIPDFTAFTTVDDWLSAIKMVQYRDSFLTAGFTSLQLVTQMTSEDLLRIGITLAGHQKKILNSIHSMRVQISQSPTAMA
The experiment in a line: Inhibition of human EPHB1 assessed as residual activity at 1 uM relative to control.
In the case of `COc1ccc(-c2nc3cc(-c4csc(C(=O)NCCC(C)C)c4)cnc3[nH]2)cc1`, the Activity is 76%.

Take `COc1ccc(-c2nc3cc(-c4csc(C(=O)NCC(C)(C)C)c4)cnc3[nH]2)cc1`: the Activity was 74%.

In the case of `COc1ccc(-c2nc3cc(-c4csc(C(=O)NCC(C)C)c4)cnc3[nH]2)cc1`, the Activity came out at 72%.
